In brackets after ≈: the same amount, converted by molar mass.
Experiments:
VZV strain Ellen = assay: VZV Antiviral (ELISA) assay; format: cell-based; settings: for IC50 (ug/ml) VZV / % inhibition 10 ug/ml VZV: VZV strain Ellen in HFF cells; for % inhibition 10 ug/ml VZV: at 10 ug/ml; for IC50: Human alphaherpesvirus 3, VZV strain Ellen in HFF cells, read-out: IC50 (ug/ml) VZV
How it was run: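 HFF cells infected overnight with VZV Ellen at MOI <0.1, mixed with uninfected cells, were seeded with compound and grown 3 days at 37° C in DMEM/2% FBS. Viral glycoprotein II was detected by ELISA with β-galactosidase-linked secondary; IC50 from fluorescence versus no-compound wells.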

HSV-1 = assay: HSV Antiviral (ELISA) assay; format: cell-based; settings: for IC50 (ug/ml) HSV: HSV-1 in Vero cells; for IC50: Human alphaherpesvirus 1, HSV-1 in Vero cells, read-out: IC50 (ug/ml) HSV
How it was run: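 Vero cells in DMEM/2% FBS pretreated with compound 30 min before HSV-1 infection (MOI 0.006), then ~24 h at 37 °C. Viral gD detected by ELISA with β-galactosidase secondary and 4-methylumbelliferyl-galactoside (ex 365/em 450 nm); IC50 from fluorescence versus untreated infected cells.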

[1] = tested on: HCMV recombinant mutant virus (RV145); assay: HCMV microtiter plate assay (beta-glucuronidase reporter); format: cell-based, Human Cytomegalovirus; settings: for IC50 (ug/ml) HCMV: HCMV in human foreskin fibroblasts; for IC50: Human betaherpesvirus 5, Fibroblast, read-out: IC50 (ug/ml) HCMV
How it was run: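 Human foreskin fibroblasts were infected with RV145 in the presence of inhibitor. β-glucuronidase under a viral promoter served as the replication marker. At 96 h post-infection, lysates in pH 7.0 phosphate with Triton X-100/sarkosyl were assayed colorimetrically or fluorometrically, and IC50 was estimated from varying inhibitor amounts.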

| Structure (SMILES) | IC50 (ug/ml) VZV (VZV strain Ellen) [µg/mL] | IC50 (ug/ml) HSV (HSV-1) [µg/mL] | IC50 (ug/ml) HCMV [1] [µg/mL] | % inhibition 10 ug/ml VZV (VZV strain Ellen) [%] | IC50 (VZV strain Ellen) [µg/mL] | inhibition at 10 µg/mL (VZV strain Ellen; Human alphaherpesvirus 3, read-out: % inhibition 10 ug/ml VZV, at 10 ug/ml, VZV strain Ellen in HFF cells) [%] | IC50 (HSV-1) [µg/mL] | IC50 [1] [µg/mL] |
| --- | --- | --- | --- | --- | --- | --- | --- | --- |
| O=C(Nc1ccc(NC(=S)NCCc2cc(F)cc(C(F)(F)F)c2)cc1)c1csnn1 [Example 762] | 1.5 (≈ 3.19 µM) | >10 | 0.002 (≈ 0.00426 µM) | – | – | – | – | – |
| CN(C)c1c(Cl)cccc1NC(=S)Nc1ccc(NC(=O)c2csnn2)cc1 [Example 503] | >10 | 8 (≈ 18.5 µM) | 0.053 (≈ 0.122 µM) | 64 | – | – | – | – |
| COc1cccc(NC(=S)Nc2ccc(NC(=O)c3ccco3)cc2)c1 [Example 473] | >10 | >10 | 0.3 (≈ 0.816 µM) | 40 | – | – | – | – |
| CC(=O)Nc1cccc(NC(=S)Nc2ccc(NC(=O)c3csnn3)cc2)c1 [Example 478] | >10 | >10 | 0.4 (≈ 0.97 µM) | 31 | – | – | – | – |
| Nc1ccc(NC(=S)Nc2ccc(NC(=O)c3ccco3)cc2)cc1Cl [Example 421] | >10 | 8 (≈ 20.7 µM) | 0.75 (≈ 1.94 µM) | – | – | – | – | – |
| O=C(Nc1ccc(NC(=S)Nc2ccc(OC(F)(F)F)c(Br)c2)cc1)c1csnn1 [Example 550] | >10 | >10 | 0.013 (≈ 0.0251 µM) | – | – | – | – | – |
| CSc1ccc(NC(=S)Nc2ccc(NC(=O)c3ccccn3)cc2)cc1Cl [Example 351] | 3.5 (≈ 8.16 µM) | 3 (≈ 6.99 µM) | 0.3 (≈ 0.699 µM) | 90 | – | – | – | – |
| CN(C)c1ccc(Cl)cc1NC(=S)Nc1ccc(NC(=O)c2ccco2)cc1 [Example 489] | 3.5 (≈ 8.44 µM) | 5 (≈ 12.1 µM) | 0.17 (≈ 0.41 µM) | 99 | – | – | – | – |
| O=C(Nc1ccc(NC(=S)Nc2cc(Cl)cc(Cl)c2)cc1)c1csnn1 [Example 921, [1,2,3]Thiadiazole-4carboxylic acid {4-[3-(3,5-dichloro-phenyl)-thioureido]-phenyl}-amide] | – | – | – | – | 7 (≈ 16.5 µM) | 85 | 8 (≈ 18.9 µM) | 0.05 (≈ 0.118 µM) |
| O=C(Nc1ccc(NC(=S)NCCc2ccc(Br)cc2)cc1)c1csnn1 [Example 606] | >10 | >10 | 0.0023 (≈ 0.00497 µM) | – | – | – | – | – |
| CC(=O)Nc1cc(Cl)cc(NC(=S)Nc2ccc(NC(=O)c3csnn3)cc2)c1 [Example 644] | 8 (≈ 17.9 µM) | >10 | 0.03 (≈ 0.0671 µM) | – | – | – | – | – |
| COc1cc(OC)c(NC(=S)Nc2ccc(NC(=O)c3cc4ccccc4s3)cc2)cc1Cl [Example 153] | >10 | 2 (≈ 4.02 µM) | >10 | 8 | – | – | – | – |
| O=C(Nc1ccc(NC(=S)NCCc2cccc(F)c2)cc1)c1csnn1 [Example 554] | 1.5 (≈ 3.74 µM) | >10 | 0.01 (≈ 0.0249 µM) | – | – | – | – | – |
| COc1cc(OC)c(NC(=S)Nc2ccc(NC(=O)c3c[nH]nn3)cc2)cc1Cl [Example 174] | >10 | 50 (≈ 116 µM) | 6 (≈ 13.9 µM) | 8 | – | – | – | – |
| O=C(Nc1ccc(NC(=S)Nc2ccc(Cl)cc2)cc1)c1ccccc1F [Example 996, N-{4-[3-(4-Chloro-phenyl)-thioureido]-phenyl}-2-fluoro-benzamide] | – | – | – | – | > 10 | – | 10 (≈ 25 µM) | 0.15 (≈ 0.375 µM) |
| COc1cc(OC)c(NC(=S)Nc2ccc(NC(=O)c3ccno3)cc2)cc1Cl [Example 470] | >10 | 0.6 (≈ 1.39 µM) | 0.7 (≈ 1.62 µM) | 17 | – | – | – | – |
| CN(C)c1ccc(NC(=S)Nc2ccc(NC(=O)c3ccco3)cc2)cc1Cl [Example 330] | >10 | >10 | 0.15 (≈ 0.362 µM) | 29 | – | – | – | – |
